Data set [1] deals with OVA-induced lung eosinophilia in mice. The experiment in a line: OVA-induced lung eosinophilia in mice. The data set is classed as in vivo, BALB/c mice. Particulars: BAL fluid, dose 1 mg/kg. The method, then: BALB/c mice (6-8 weeks old) were immunized with ovalbumin (10 μg i.p) on day 0 and 7. In order to elicit a local inflammatory response in the lung, mice were challenged between day's 15-17 with a nebulised solution of ovalbumin (10 μg/ml; De Vilibiss Ultraneb 2000, once daily for 30 min during the 3 days). On each separate day between 15 and 17 each animal received via oral gavage the test compound, at t−1 h and t+7 h with respect to OVA exposure at t=0 h. Eight hours after the final OVA challenge, bronchoalveolar lavage (BAL) was then carried out. Total cell numbers in the BAL fluid samples were measured using a haemocytometer. Cytospin smears of the BAL fluid samples were prepared by centrifugation at 1200 rpm for 2 min at room temperature and stained using a DiffQuik stain system (Dade Behring) for differential cell counts. […]

Data set [2] has as its target T1, CRTH2 (Homo sapiens, UniProt Q9Y5Y4).
T1 sequence (Q9Y5Y4 1-395): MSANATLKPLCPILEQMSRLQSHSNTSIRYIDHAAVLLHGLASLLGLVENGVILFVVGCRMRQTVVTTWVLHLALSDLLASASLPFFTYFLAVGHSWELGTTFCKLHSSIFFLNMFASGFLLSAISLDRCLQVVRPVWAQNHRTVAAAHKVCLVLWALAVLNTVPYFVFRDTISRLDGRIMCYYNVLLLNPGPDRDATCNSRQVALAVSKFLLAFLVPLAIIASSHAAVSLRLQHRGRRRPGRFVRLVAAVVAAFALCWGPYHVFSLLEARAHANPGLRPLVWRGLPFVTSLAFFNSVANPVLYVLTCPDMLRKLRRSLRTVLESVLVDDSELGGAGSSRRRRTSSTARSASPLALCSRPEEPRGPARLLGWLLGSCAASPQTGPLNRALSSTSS
The experiment in a line: Radioligand binding Scintillation Proximity Assay ([3H]PGD2, hCRTH2-CHO cell membranes). The arrangement: host or cells: CHO cells. The note with it: 1.5 nM [3H]PGD2, hCRTH2-CHO cell membranes, SPA. An outline of the steps:
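SPA competition binding at room temperature, 90 min with agitation: 1.5 nM [3H]PGD2, 10-50 μg/ml hCRTH2-CHO membrane protein, WGA SPA beads, HEPES pH 7.4 with 10 mM MnCl2, 1% DMSO. Non-specific binding defined with 10 μM PGD2; scintillation counting.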
For orientation: In a scintillation proximity assay essentially only radioactivity close to the scintillant gives light.

In data set [3] the target is T1, CRTH2. The experiment in a line: [35S]GTPγS binding assay (CHO-CRTH2 cell membranes). The data set is classed as biochemical. The arrangement: expressed in transfected cells; host or cells: CHO-CRTH2 cells. Particulars: antagonist mode, fixed concentration of PGD2 (EC80). The method, then:
Adherent CHO cells expressing hCRTH2 (Euroscreen, Belgium) were cultured in 225 cm^2 cell culture flasks (Corning, USA) in 30 ml of medium. After two rinses of phosphate buffered saline (PBS), cells were harvested in 10 ml of PBS containing 1 mM EDTA, centrifuged at 500×g for 5 min at 4° C. and frozen at −80° C. The pellet was re-suspended in 50 mM Tris-HCl, pH 7.4, 2 mM EDTA, 250 mM Sucrose, containing protease inhibitor cocktail tablets, (Complete EDTA-free, Roche, Germany) and incubated 30 min at 4° C. Cells were disrupted by nitrogen cavitation (Parr Instruments, USA) at 4° C. (800 p.s.i. for 30 min), and centrifuged at 500×g for 10 min at 4° C. Pellet containing nuclei and cellular debris was discarded and supernatant was centrifuged 60 min at 4° C. at 45000×g. Membrane pellet was re-suspended in storage buffer (10 mM HEPES/KOH pH 7.4, 1 mM EDTA, 250 mM sucrose, protease inhibitor cocktail tablets) using Dounce homogenization and frozen in liquid nitrogen, and stored at −80° C.
The [^35S]GTPγS assay measures the increase in guanine nucleotide exchange at G-proteins in cell membranes, resulting from agonist (PGD2) binding to CRTH2. This process can be monitored in vitro by incubating cell membranes containing G-proteins and CRTH2 with GDP and [^35S]GTPγS, a radiolabeled, hydrolysis-resistant analogue of GTP (see, Harrison et al., Life Sciences 74, 489-508, 2003). The addition of a Compounds of Formula (I) results in binding to CRTH2 and thus in an inhibition of agonist binding, which can be monitored as inhibition of the stimulation of GTP/GDP exchange.
Briefly, Compounds of Formula (I) are incubated in 96-well scintillating white polystyrene plates (Perkin Elmer, USA) in a final volume of 200 μl containing 20 mM HEPES/KOH pH 7.4, 3 mM MgCl2, 10 μg/ml Saponin, 5 μM GDP, 75 mM NaCl and 2% of dimethylsulphoxide (DMSO). Reaction is triggered by the addition of 5-10 μg of CHO-CRTH2 cell membranes and 0.15 nM [^35S]GTPγS. After 60 min incubation at 30° C., reaction is stopped by centrifugation at 700×g, at 4° C. for 10 minutes and supernatant is removed. The radioactivity coming from the [^35S]GTPγS bound on centrifuged cell membranes is recorded using a 1450 Micro-beta scintillation counter. For IC50 determination, increasing concentrations of compounds are incubated in presence of a fixed concentration of PGD2 (EC80). For EC50 measurements, compounds are incubated without addition of PGD2. Basal [^35S]GTPγS activity is determined without addition of any ligands or compounds. 100% [^35S]GTPγS activity is measured by the addition of 1 μM of PGD2.
(In general: Binding of GTPγS marks nucleotide exchange on a G protein.)

The target in data set [4] is T1, CRTH2. The experiment in a line: Cellular Dielectric Spectroscopy (CHO-CRTH2 cells). The arrangement: expressed in transfected cells; host or cells: CHO-CRTH2 cells. The data set is classed as cell-based. The method, then:
Cellular Dielectric Spectroscopy (CDS) is a label-free technology based on the measurement of complex impedance changes (delta Z or dZ). Impedance (Z) is related to the ratio of voltage to current as described by Ohm's law (Z=V/I). In order to measure the changes in impedance that occur in response to receptor stimulation, mammalian cells are seeded onto a custom 96-well microliter plate that contains electrodes at the bottom of each well. Key contributors to the impedance measurements are changes in cell-substrate adherence, changes in cell shape and volume, and changes in cell-cell interactions. These factors individually or collectively affect the flow of current, influencing the magnitude and characteristics of the signal measured. G-protein coupled receptors ligand-induced activity can be measured using this technology and specific G protein coupling can be identified. Activities of reference agonist and antagonist molecules of CRTH2 have been measured using this assay and similar results were obtained compared to different functional assays.
CHO-CRTH2 cells are cultured in HAM's F12 (Lonza, Switzerland) supplemented with 10% foetal calf serum (PAA, Australia) and 400 μg/ml Geneticin. 100000 cells/well are seeded in standard 96W Microplates (MDS Analytical Technologies) and incubated at 37° C. in 5% CO2 for 24 hours. Cells are washed twice with 135 μl of cell key buffer (Hank's Balanced Salt Solution 1× (HBSS) (Invitrogen) supplemented with 10 mM HEPES pH 7.4 in presence of 1% DMSO). For EC50 determination. 15 μl of increasing concentration of Compounds of Formula (I) diluted in cell key buffer are added to the cells and agonist activity is then recorded for 25 minutes. […] Results are expressed as the amplitude between the highest and the lowest signal produced (max-min). Basal and maximum activities are measured, respectively in absence or presence of PGD2 (EC80).

Data set [5] relates to eosinophils in human whole blood. The experiment in a line: PGD2-induced eosinophil cell shape assay in human whole blood. The data set is classed as cell-based. The note with it: 10 nM PGD2 final, flow cytometry. The method, then:
The Compounds of Formula (I) were diluted in dimethylsulphoxide so that the total volume of dimethylsulfoxide was kept constant at 2% dimethylsulphoxide (Me2SO). Serial dilutions of 200 μM to 0.09 μM were prepared. Samples of 90 μl of human blood from healthy volunteers (Centre de Transfusion Sanguine de Genève) were pre-incubated in polypropylene Falcon tubes (BD 352063) for 20 minutes in a water bath at 37° C. with 10 μl of diluted compounds. For CRTH2 activation, 100 μl PGD2 (Cayman 12010) at 20 nM was added (10 nM final) to each tube and cells were maintained at 37° C. For negative control cells were treated with PBS. After 10 minutes, cell activation was stopped with 120 μl Formaldehyde 10% (4% final, Fluka 41650) and cells were rested for 10 minutes at room temperature. Fixed cells were transferred into polypropylene tubes and then treated for 1 hour in a water bath at 37° C. with 2 ml of Triton-Surfact-Amps X-100 (Pierce 28314) at 0.166% (0.13% Triton final). After several washes with PBS (red cells lysed progressively during washes, two washes are necessary), cells were analyzed by flow cytometry on a FACSCalibur. In one embodiment, the compounds of Formula (I) of the present invention are capable of blocking the cell shape change of eosinophils induced by PGD2 in Whole Blood.
Background: In flow cytometry, cells or beads pass a laser one at a time.

Where [6] appears, read: partial agonists, agonist activity without PGD2.

SMILES strings stand for the structures. pEC50, pIC50: −log10 of the molar value.

The term melting point denotes the temperature, or range, at which the solid turns liquid. The pIC50 is the negative decadic logarithm of the IC50, by convention in mol/L. A word on the pEC50: it is −log10 of the EC50, conventionally taken in molar units. By Emax is commonly meant the greatest response seen or fitted, relative to the assay's reference.

Turning to `C[C@@H]1C[C@H]2[C@@H]3CCC4=CC(=O)C=C[C@]4(C)[C@@]3(F)[C@@H](O)C[C@]2(C)[C@@]1(O)C(=O)CO` [Dexamethasone], in data set [1], the “% inhibition eosinophils (mean ± s.e.m.)” value is 90 ± 10% and the “% inhibition total cells (mean ± s.e.m.)” value was 88 ± 11%.
Turning to `CCS(=O)(=O)c1ccc(F)c(C#Cc2cc(Cl)ccc2OCC(=O)O)c1` [Example 104, (4-chloro-2-{[5-(ethylsulfonyl)-2-fluorophenyl]ethynyl}phenoxy)acetic acid], the melting point was in the range of 165 to 169 °C. In data set [2], this molecule gave a pIC50 of 8.52.
`CC(C)CS(=O)(=O)c1ccc(F)c(C#Cc2cc(Cl)ccc2OCC(=O)O)c1` [Example 105, (4-chloro-2-{[2-fluoro-5-(isobutylsulfonyl)phenyl]ethynyl}phenoxy)acetic acid] registered a melting point of 141 to 143 °C. The same molecule gave a pIC50 in data set [2] of 8.70.
On to `CS(=O)(=O)c1ccc(F)c(C#Cc2cc(Cl)ccc2OCC(=O)O)c1` [Example 48, (4-chloro-2-{[2-fluoro-5-(methylsulfonyl)phenyl]ethynyl}phenoxy)acetic acid], for which the pIC50 in data set [3] was 7.82; in data set [4] (antagonist mode, fixed concentration of PGD2 (EC80)), 8.05; in data set [5], 7.02; in data set [2], 8.05. Further, the pEC50 in data set [4] (setting [6]) was 9.00. Moreover, the maximal effect (Emax) in data set [4] (setting [6]) amounted to 12%.
The molecule `COCCS(=O)(=O)c1ccc(F)c(C#Cc2cc(Cl)ccc2OCC(=O)O)c1` [Example 106, [4-chloro-2-({2-fluoro-5-[(2-methoxyethyl)sulfonyl]phenyl}ethynyl)phenoxy]acetic acid] showed a melting point of 125 to 128 °C. In addition, in data set [2], the negative logarithm of the IC50 (pIC50) is 8.70.
Consider `COC1(C)c2ccc(C#Cc3cc(Cl)ccc3OCC(=O)O)cc2S(=O)(=O)C1(C)C` (stereo not shown) [Example 162, {4-chloro-2-[(3-methoxy-2,2,3-trimethyl-1,1-dioxido-2,3-dihydro-1-benzothien-6-yl)ethynyl]phenoxy}acetic acid], for which the melting point fell in the range of 80 to 95 °C. Further, the pIC50 in data set [2] was 7.54.
